Experimental data as given in US20040175415A1, “Formulations and methods of delivery of intact tocopheryl succinate to humans” (priority 2003, published 2004).
Like-named read-outs stand apart in the source and are kept apart here.

Legend:
[1] = room temperature raised to 40° C., man; cited from earlier work
[2] = DRI 2000, oral ingestion; cited from earlier work
[3] = system: colon cancer xenografts; conditions: ip, 4 injections at 5 mg once every 3 days; cited from earlier work
[4] = safety of TS treatment in the human subjects; format: in vivo; conditions: human subjects of this study
Procedure: The hydrolyzed products of TS are tocopherol (vitamin E) and succinic acid, an endogenous metabolite produced during the oxidation of carbohydrates, amino acids and fat. The upper safety limit for vitamin E is set at 1000 mg or 1 gm by the most recent issue of DRI (Dietary Reference Intake) for vitamin C, vitamin E selenium and carotenoids. The DRI report was published in 2000 and one of the joint inventors of the present invention served on the committee from which the report was sponsored by the Institute of Medicine, US National Academy of Sciences (Chan et al. 2000). The upper dose limit claimed in the invention herein, is below or around the upper safety limit set at 1 gm by the Institute of Medicine for oral ingestion.

[5] = system: colon cancer cell xenografts; conditions: ip, 5 injections of 10 mg/day for 10 days; p < 0.01; cited from earlier work
[6] = system: human breast cancer cells; conditions: cited from earlier work
[7] = system: several lines of cancer cells in culture; conditions: prior to the induction of apoptosis; cited from earlier work
[8] = system: esterase in the digestive juice; conditions: human (Howritt et al. 1984, Chessman et al. 1995); cited from earlier work
[9] = system: chemical-induced forestomach cancer; conditions: cited from earlier work
[10] = system: human prostate cancer cells; conditions: cited from earlier work
[11] = system: murine melanoma; conditions: ip, 15 injections at 3 mg/mouse, cited from earlier work
[12] = the Merck index; cited from earlier work
[13] = intragastric 16 times at 1.25 g/kg
[14] = intragastric 16 times at 2.5 g/kg

O=C(O)c1ccccc1O [salicylate]
increase in dermal crossing [1]: 3 fold

Cc1c(C)c2c(c(C)c1O)CC[C@@](C)(CCC[C@H](C)CCC[C@H](C)CCCC(C)C)O2 [vitamin E, RRR-alpha-tocopherol]
upper safety limit [2]: 1000 mg

tocopheryl succinate [TS]
reduction in tumor volume [3]: 75% reduction in tumor volume | safety of treatment procedure [4]: no concern regarding the safety | tumor volume [5]: tumor volume reduced | angiogensis ([6]; ip injection): ip injection also reduce | expression of VEGF (vascular endothelial growth factor) ([6]; ip injection): angiogensis via the suppressing | reduction in tumor weight ([6]; ip, 7 injections at 3 mg/day): ip injection resulted in 63% | effect on tumor with sc injections ([6]; sc, at 150 mg/kg per day): no effect with sc injections. | cellular lysosomal disruption [7]: major disruption | fate after oral ingestion [8]: convert to tocopherol | reduction in tumor incident [9, 13]: 18% | reduction in tumor volume [9, 13]: 63% | reduction in tumor incident [9, 14]: 23% | reduction in tumor volume [9, 14]: 81% | less tumor incident ([9]; ip, 8 injections at 20 mg/kg): reduction in tumor volume & 50% | reduction in tumor volume ([9]; ip, 8 injections at 20 mg/kg): ip treatments resulted in 84% | expression of PSA (prostate specific antigen) [10]: strongly suppresses | expression of the androgen receptors [10]: inhibits | proliferation [11]: Treatment resulted in reduction of | tumor volume ([11]; p < 0.01): Treatment resulted in reduction of | solubility in vegetable oils [12]: not readily soluble
